Here are results for five compounds from ChEMBL document CHEMBL1909046, “DrugMatrix in vitro pharmacology data”.

The term IC50 denotes the concentration at which inhibition is half-maximal. The term Ki denotes a dissociation constant, usually derived from enzyme kinetics or from competition with a known ligand.

The first data set concerns the target T1, Vasoactive intestinal polypeptide receptor 1 (Homo sapiens, UniProt P32241). Further: in other assays of this panel Not Active means under 50% inhibition at 10 µM.
T1 sequence (P32241 whole entry): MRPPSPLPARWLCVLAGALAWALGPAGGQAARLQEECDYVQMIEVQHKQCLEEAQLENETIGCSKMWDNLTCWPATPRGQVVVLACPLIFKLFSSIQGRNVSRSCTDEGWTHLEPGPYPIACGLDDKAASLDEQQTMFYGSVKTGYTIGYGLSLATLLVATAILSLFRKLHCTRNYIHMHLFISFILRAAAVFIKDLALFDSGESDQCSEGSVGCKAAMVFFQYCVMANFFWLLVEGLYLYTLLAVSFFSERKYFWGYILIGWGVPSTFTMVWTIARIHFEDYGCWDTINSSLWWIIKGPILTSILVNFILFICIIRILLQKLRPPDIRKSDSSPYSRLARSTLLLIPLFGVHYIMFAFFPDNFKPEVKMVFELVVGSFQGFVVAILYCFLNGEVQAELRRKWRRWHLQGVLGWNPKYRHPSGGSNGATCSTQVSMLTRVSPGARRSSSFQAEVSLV
Assay: not given
The class given is cell membranes, Membrane. Particulars: ht-29.
Take `CC(=O)S[C@@H]1CC2=CC(=O)CC[C@]2(C)[C@H]2CC[C@@]3(C)[C@@H](CC[C@@]34CCC(=O)O4)[C@H]12` [SPIRONOLACTONE]: the IC50 result was “Not Active”.

On to `CC(CCc1ccccc1)NCC(O)c1ccc(O)c(C(N)=O)c1` (stereo unspecified) [LABETALOL], for which the IC50 result is given as “Not Active”.

`CC(C)[C@H](N)C(=O)OCCOCn1cnc2c(=O)nc(N)[nH]c21` [VALACYCLOVIR]: the IC50 result is reported as “Not Active”.

`COc1ccc(C(CN(C)C)C2(O)CCCCC2)cc1` (stereo unspecified) [VENLAFAXINE]: the IC50 entry is given as “Not Active”.

As to `CN(N=O)C(=O)N[C@@H](C=O)[C@@H](O)[C@H](O)[C@H](O)CO` [STREPTOZOCIN], the IC50 result is given as “Not Active”.

For a further data set, the target named is T2, 5-hydroxytryptamine receptor 1A (Rattus norvegicus, UniProt P19327). Further: in other assays of this panel Not Active means under 50% inhibition at 10 µM.
T2 sequence (P19327 whole entry): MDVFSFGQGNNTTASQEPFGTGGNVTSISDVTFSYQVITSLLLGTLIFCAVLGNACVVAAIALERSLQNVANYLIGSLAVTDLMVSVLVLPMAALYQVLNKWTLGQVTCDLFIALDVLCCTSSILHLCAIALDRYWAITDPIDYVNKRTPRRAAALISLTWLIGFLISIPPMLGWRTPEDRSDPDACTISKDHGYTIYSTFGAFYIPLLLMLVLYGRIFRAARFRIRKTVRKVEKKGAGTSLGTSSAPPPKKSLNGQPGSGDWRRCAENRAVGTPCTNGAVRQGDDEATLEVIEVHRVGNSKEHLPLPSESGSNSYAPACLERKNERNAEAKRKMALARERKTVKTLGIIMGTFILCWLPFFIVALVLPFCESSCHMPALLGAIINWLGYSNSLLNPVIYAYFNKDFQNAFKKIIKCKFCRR
Assay: not given
The class given is cell membranes, CHO-K1, Membrane. Particulars: cho-k1.
On to `CC(=O)S[C@@H]1CC2=CC(=O)CC[C@]2(C)[C@H]2CC[C@@]3(C)[C@@H](CC[C@@]34CCC(=O)O4)[C@H]12` [SPIRONOLACTONE], for which the concentration for half-maximal inhibition (IC50) entry was “Not Active”.

Consider `CC(C)[C@H](N)C(=O)OCCOCn1cnc2c(=O)nc(N)[nH]c21` [VALACYCLOVIR], for which the IC50 entry is “Not Active”.

As to `COc1ccc(C(CN(C)C)C2(O)CCCCC2)cc1` (stereo unspecified) [VENLAFAXINE], the IC50 result is recorded as “Not Active”.

As for `CN(N=O)C(=O)N[C@@H](C=O)[C@@H](O)[C@H](O)[C@H](O)CO` [STREPTOZOCIN], the IC50 entry is “Not Active”.

Staying with this data set, now noted: read-out: IC50.
With `CC(CCc1ccccc1)NCC(O)c1ccc(O)c(C(N)=O)c1` (stereo unspecified) [LABETALOL], the IC50 was found to be 393 nM.

The same data set, now with this note: read-out: Ki.
For the compound `CC(CCc1ccccc1)NCC(O)c1ccc(O)c(C(N)=O)c1` (stereo unspecified) [LABETALOL], the Ki was 225 nM.

For the next data set, the target named is T3, Cytochrome P450 2A6 (Homo sapiens, UniProt P11509). Further: in other assays of this panel Not Active means under 50% inhibition at 10 µM.
T3 sequence (P11509 whole entry): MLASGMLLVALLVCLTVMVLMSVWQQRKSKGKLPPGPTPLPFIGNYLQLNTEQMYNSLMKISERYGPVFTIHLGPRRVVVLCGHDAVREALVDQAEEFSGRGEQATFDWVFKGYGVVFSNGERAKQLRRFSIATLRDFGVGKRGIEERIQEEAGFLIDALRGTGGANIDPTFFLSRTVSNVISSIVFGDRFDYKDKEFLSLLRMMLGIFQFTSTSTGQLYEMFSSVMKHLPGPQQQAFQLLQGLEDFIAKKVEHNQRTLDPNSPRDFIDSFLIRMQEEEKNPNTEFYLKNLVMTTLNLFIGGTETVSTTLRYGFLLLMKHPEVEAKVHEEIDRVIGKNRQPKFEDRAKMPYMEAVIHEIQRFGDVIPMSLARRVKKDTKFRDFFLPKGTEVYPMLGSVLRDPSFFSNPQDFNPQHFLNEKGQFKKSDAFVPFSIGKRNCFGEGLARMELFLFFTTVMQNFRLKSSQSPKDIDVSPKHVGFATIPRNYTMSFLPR
Assay: not given
The settings on record: bti-tn-5b1-4.
With `CC(=O)S[C@@H]1CC2=CC(=O)CC[C@]2(C)[C@H]2CC[C@@]3(C)[C@@H](CC[C@@]34CCC(=O)O4)[C@H]12` [SPIRONOLACTONE], the IC50 entry is reported as “Not Active” and the Ki entry was “Not Active”.

Regarding `CC(CCc1ccccc1)NCC(O)c1ccc(O)c(C(N)=O)c1` (stereo unspecified) [LABETALOL], the IC50 entry is given as “Not Active” and the Ki result is on record as “Not Active”.

Consider `CC(C)[C@H](N)C(=O)OCCOCn1cnc2c(=O)nc(N)[nH]c21` [VALACYCLOVIR], for which the IC50 entry is listed as “Not Active” and the Ki result is on record as “Not Active”.

Take `COc1ccc(C(CN(C)C)C2(O)CCCCC2)cc1` (stereo unspecified) [VENLAFAXINE]: the IC50 result is recorded as “Not Active” and the Ki entry is reported as “Not Active”.

For the compound `CN(N=O)C(=O)N[C@@H](C=O)[C@@H](O)[C@H](O)[C@H](O)CO` [STREPTOZOCIN], the IC50 entry is “Not Active” and the Ki result is “Not Active”.

System in the next data set: not listed separately
The data set is described as follows: DRUGMATRIX: Purinergic P2X radioligand binding (ligand: [3H] alpha, beta-Methylene-ATP). The class given is cell membranes, Oryctolagus cuniculus, New Zealand albino, Urinary bladder, Membrane. The settings on record: Not Active = under 50% inhibition at 10 µM.
As for `CC(=O)S[C@@H]1CC2=CC(=O)CC[C@]2(C)[C@H]2CC[C@@]3(C)[C@@H](CC[C@@]34CCC(=O)O4)[C@H]12` [SPIRONOLACTONE], the IC50 result is listed as “Not Active” and the Ki entry is listed as “Not Active”.

Turning to `CC(CCc1ccccc1)NCC(O)c1ccc(O)c(C(N)=O)c1` (stereo unspecified) [LABETALOL], the IC50 result was “Not Active” and the Ki result is on record as “Not Active”.

On to `CC(C)[C@H](N)C(=O)OCCOCn1cnc2c(=O)nc(N)[nH]c21` [VALACYCLOVIR], for which the IC50 entry was “Not Active” and the Ki result is on record as “Not Active”.

Turning to `COc1ccc(C(CN(C)C)C2(O)CCCCC2)cc1` (stereo unspecified) [VENLAFAXINE], the IC50 result is “Not Active” and the Ki result is on record as “Not Active”.

`CN(N=O)C(=O)N[C@@H](C=O)[C@@H](O)[C@H](O)[C@H](O)CO` [STREPTOZOCIN]: the IC50 entry is given as “Not Active” and the Ki entry is on record as “Not Active”.

System in a further data set: not listed separately
The data set can be described thus: DRUGMATRIX: Imidazoline I2, Central radioligand binding (ligand: [3H] Idazoxan). The settings on record: Not Active = under 50% inhibition at 10 µM. It is filed as cell membranes, Rattus norvegicus, Wistar, Cerebral cortex, Membrane.
As for `CC(=O)S[C@@H]1CC2=CC(=O)CC[C@]2(C)[C@H]2CC[C@@]3(C)[C@@H](CC[C@@]34CCC(=O)O4)[C@H]12` [SPIRONOLACTONE], the IC50 result was “Not Active” and the Ki entry is reported as “Not Active”.

Consider `CC(CCc1ccccc1)NCC(O)c1ccc(O)c(C(N)=O)c1` (stereo unspecified) [LABETALOL], for which the IC50 entry is given as “Not Active” and the Ki entry was “Not Active”.

In the case of `CC(C)[C@H](N)C(=O)OCCOCn1cnc2c(=O)nc(N)[nH]c21` [VALACYCLOVIR], the IC50 entry is “Not Active” and the Ki entry is given as “Not Active”.

Turning to `COc1ccc(C(CN(C)C)C2(O)CCCCC2)cc1` (stereo unspecified) [VENLAFAXINE], the IC50 entry is “Not Active” and the Ki result is “Not Active”.

Take `CN(N=O)C(=O)N[C@@H](C=O)[C@@H](O)[C@H](O)[C@H](O)CO` [STREPTOZOCIN]: the IC50 result was “Not Active” and the Ki entry is “Not Active”.

The target in another data set is Platelet-activating factor receptor (Homo sapiens, UniProt P25105). The data set is described as follows: biochemical. It is filed as tissue-based. Particulars: platelet. Further: in other assays of this panel Not Active means under 50% inhibition at 10 µM.
Chain of Platelet-activating factor receptor (P25105 whole entry): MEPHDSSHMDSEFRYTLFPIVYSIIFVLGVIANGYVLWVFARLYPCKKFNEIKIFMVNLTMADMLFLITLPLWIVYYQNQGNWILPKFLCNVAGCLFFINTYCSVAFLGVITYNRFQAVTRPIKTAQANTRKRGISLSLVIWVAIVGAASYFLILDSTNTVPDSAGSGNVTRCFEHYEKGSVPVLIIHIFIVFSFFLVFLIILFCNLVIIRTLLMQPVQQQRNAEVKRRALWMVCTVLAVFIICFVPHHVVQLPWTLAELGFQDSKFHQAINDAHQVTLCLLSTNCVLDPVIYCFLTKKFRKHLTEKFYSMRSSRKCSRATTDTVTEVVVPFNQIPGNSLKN
With `CC(=O)S[C@@H]1CC2=CC(=O)CC[C@]2(C)[C@H]2CC[C@@]3(C)[C@@H](CC[C@@]34CCC(=O)O4)[C@H]12` [SPIRONOLACTONE], the IC50 entry is given as “Not Active”.

As for `CC(CCc1ccccc1)NCC(O)c1ccc(O)c(C(N)=O)c1` (stereo unspecified) [LABETALOL], the IC50 result is “Not Active”.

Regarding `CC(C)[C@H](N)C(=O)OCCOCn1cnc2c(=O)nc(N)[nH]c21` [VALACYCLOVIR], the IC50 result is reported as “Not Active”.

For `COc1ccc(C(CN(C)C)C2(O)CCCCC2)cc1` (stereo unspecified) [VENLAFAXINE], the IC50 entry was “Not Active”.

Consider `CN(N=O)C(=O)N[C@@H](C=O)[C@@H](O)[C@H](O)[C@H](O)CO` [STREPTOZOCIN], for which the IC50 result was “Not Active”.

The target of another data set is T4, 3-hydroxy-3-methylglutaryl-coenzyme A reductase (Homo sapiens, UniProt P04035).
T4 sequence (P04035 whole entry): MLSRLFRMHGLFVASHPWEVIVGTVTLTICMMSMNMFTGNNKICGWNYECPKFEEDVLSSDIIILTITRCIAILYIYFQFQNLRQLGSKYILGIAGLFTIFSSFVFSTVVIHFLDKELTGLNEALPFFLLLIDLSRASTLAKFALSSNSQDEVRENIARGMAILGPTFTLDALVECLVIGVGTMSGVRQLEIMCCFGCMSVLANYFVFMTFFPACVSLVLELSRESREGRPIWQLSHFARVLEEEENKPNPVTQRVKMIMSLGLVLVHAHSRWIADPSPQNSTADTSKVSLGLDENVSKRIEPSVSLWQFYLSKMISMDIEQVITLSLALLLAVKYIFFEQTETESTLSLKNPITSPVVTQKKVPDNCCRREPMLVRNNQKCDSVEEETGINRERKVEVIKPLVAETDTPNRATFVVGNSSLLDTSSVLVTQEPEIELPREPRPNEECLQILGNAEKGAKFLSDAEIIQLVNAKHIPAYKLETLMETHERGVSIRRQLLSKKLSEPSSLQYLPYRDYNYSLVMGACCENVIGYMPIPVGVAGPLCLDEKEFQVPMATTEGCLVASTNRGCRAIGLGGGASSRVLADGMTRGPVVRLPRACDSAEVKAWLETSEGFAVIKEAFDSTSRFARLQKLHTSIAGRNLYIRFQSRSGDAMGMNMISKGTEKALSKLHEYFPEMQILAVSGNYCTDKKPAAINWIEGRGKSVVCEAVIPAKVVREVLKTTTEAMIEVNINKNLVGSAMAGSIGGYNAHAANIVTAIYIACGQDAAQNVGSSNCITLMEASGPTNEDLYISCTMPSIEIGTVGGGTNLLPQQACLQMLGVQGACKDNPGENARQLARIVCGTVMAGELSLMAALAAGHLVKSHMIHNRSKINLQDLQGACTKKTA
Assay: not given
Further details: species or system Escherichia coli.
Conditions: not given
Regarding `CC(=O)S[C@@H]1CC2=CC(=O)CC[C@]2(C)[C@H]2CC[C@@]3(C)[C@@H](CC[C@@]34CCC(=O)O4)[C@H]12` [SPIRONOLACTONE], the IC50 entry was “Not Active”.

`CC(CCc1ccccc1)NCC(O)c1ccc(O)c(C(N)=O)c1` (stereo unspecified) [LABETALOL]: the IC50 entry is reported as “Not Active”.

In the case of `CC(C)[C@H](N)C(=O)OCCOCn1cnc2c(=O)nc(N)[nH]c21` [VALACYCLOVIR], the IC50 result is recorded as “Not Active”.

Regarding `COc1ccc(C(CN(C)C)C2(O)CCCCC2)cc1` (stereo unspecified) [VENLAFAXINE], the IC50 result was “Not Active”.

As to `CN(N=O)C(=O)N[C@@H](C=O)[C@@H](O)[C@H](O)[C@H](O)CO` [STREPTOZOCIN], the IC50 entry is given as “Not Active”.
